Results taken from BindingDB's records for doi:10.1016/s0960-894x(00)00604-1 (Merck Research Laboratories, 2001).
pIC50: −log10 of the molar value.

target: Histone deacetylase (Eimeria tenella); experiment: Inhibitory activity against histone deacetylase (HDAC) from partially purified extracts of Eimeria tenella protozoal cells

Compound | pIC50
CC[C@H](C)[C@@H]1NC(=O)[C@H](Cc2cn(OC)c3ccccc23)NC(=O)[C@H](CCCCCC(=O)C(C)O)NC(=O)[C@H]2CCCCN2CC1=O (some centres not stated) | 8.40
CC[C@H](C)[C@@H]1NC(=O)[C@H](Cc2cn(OC)c3ccccc23)NC(=O)[C@H](CCCCCP(=O)(OC)OC)NC(=O)[C@H]2CCCCN2CC1=O | 6.07
CC[C@H](C)[C@@H]1NC(=O)[C@H](Cc2cn(OC)c3ccccc23)NC(=O)[C@H](CCCCCC(=O)O)NC(=O)[C@H]2CCCCN2CC1=O | 7.52
CCCCCCCC[C@@H]1NC(=O)[C@H]2CCCCN2CC(=O)[C@H]([C@@H](C)CC)NC(=O)[C@H](Cc2cn(OC)c3ccccc23)NC1=O | 6.52
CC[C@H](C)[C@@H]1NC(=O)[C@H](Cc2cn(OC)c3ccccc23)NC(=O)[C@H](CCCCCC(=O)OC)NC(=O)[C@H]2CCCCN2CC1=O | 9.10
CC[C@H](C)[C@@H]1NC(=O)[C@H](Cc2cn(OC)c3ccccc23)NC(=O)[C@H](CCCCCC(=O)C2CO2)NC(=O)[C@H]2CCCCN2CC1=O (some centres not stated) | 9.00
CCC(=O)CCCCC[C@@H]1NC(=O)[C@H]2CCCCN2CC(=O)[C@H]([C@@H](C)CC)NC(=S)[C@H](Cc2cn(OC)c3ccccc23)NC1=O | 6.68
